Literature values, collected in US20090306027A1 (priority 2006, published 2009).
Where a name gives a salt, the structure may show the parent alone.

| solubility in alcohol (alcohol) | solubility in ether (ether) | Structure (SMILES) | solubility in water | solubility in organic solvents (organic solvents such as ethanol, ether and chloroform) |
| --- | --- | --- | --- | --- |
| slightly soluble | very slightly soluble | NNc1nncc2ccccc12 [Hydralazine hydrochloride, hydralazine hydrochloride] | soluble |  |
|  |  | O=[N+]([O-])O[C@H]1CO[C@H]2[C@@H]1OC[C@H]2O[N+](=O)[O-] [Diluted isosorbide dinitrate, 1,4,3,6-dianhydro-D-glucitol-2,5-dinitrate] | sparingly soluble | freely soluble |
